Like-named read-outs stand apart in the source and are kept apart here.
Test system: SARS-CoV-2 strain USA-WA1/2020
Assay: microbe, parasite or virus in culture
Assay type: cell-based
Settings: Severe acute respiratory syndrome coronavirus 2, HeLa-ACE2, 24 h, read-out: EC50, uM (Hela)
[1] = HeLa-ACE2 cells, SARS-CoV-2 infection, 24 h, class symbols
[2] = HeLa-ACE2 cells, SARS-CoV-2 infection, 24 h, cells given as a bound

Structure (SMILES)	EC50 [1] [µM]	also measured
CC(C)C[C@H](NC(=O)C(=O)Nc1ccccc1F)C(=O)N[C@@H](CCC(=O)N(C)C)C(=O)COc1c(F)c(F)cc(F)c1F [Compound 123, N1-((S)-1-(((S)-6-(dimethylamino)-2,6-dioxo-1-(2,3,5,6-tetrafluorophenoxy)-hexan-3-yl)amino)-4-methyl-1-oxopentan-2-yl)-N2-(2-fluorophenyl)oxalamide]	0.05 to 0.2	
CC(C)C[C@H](NC(=O)C(=O)NC1CCC1)C(=O)N[C@@H](C[C@@H]1CCNC1=O)C(=O)COc1c(F)c(F)cc(F)c1F [Compound 124, N1-cyclobutyl-N2-((S)-4-methyl-1-oxo-1-(((S)-3-oxo-1-((S)-2-oxopyrrolidin-3-yl)-4-(2,3,5,6-tetrafluorophenoxy)butan-2-yl)amino)pentan-2-yl)oxalamide]	0.05 to 0.2	
CC(C)C[C@H](NC(=O)C(=O)Nc1ccccc1F)C(=O)N[C@@H](C[C@@H]1CCNC1=O)C(=O)COP(=O)(c1ccccc1)c1ccccc1 [Compound 125, (S)-3-((S)-2-(2-((2-fluorophenyl)amino)-2-oxoacetamido)-4-methylpentanamido)-2-oxo-4-((S)-2-oxopyrrolidin-3-yl)butyl diphenylphosphinate]		EC50: < 0.05 µM
CC(C)C[C@H](NC(=O)O[C@@H]1CCOC1)C(=O)N[C@@H](C[C@@H]1CCNC1=O)C(=O)COc1c(F)c(F)cc(F)c1F [Compound 126, (R)-tetrahydrofuran-3-yl ((S)-4-methyl-1-oxo-1-(((S)-3-oxo-1-((S)-2-oxopyrrolidin-3-yl)-4-(2,3,5,6-tetrafluorophenoxy)butan-2-yl)amino)pentan-2-yl)carbamate]		EC50 [2]: > 1 µM
CC(C)C[C@H](NC(=O)O[C@H]1CCOC1)C(=O)N[C@@H](C[C@@H]1CCNC1=O)C(=O)COc1c(F)c(F)cc(F)c1F [Compound 127, (S)-tetrahydrofuran-3-yl ((S)-4-methyl-1-oxo-1-(((S)-3-oxo-1-((S)-2-oxopyrrolidin-3-yl)-4-(2,3,5,6-tetrafluorophenoxy)butan-2-yl)amino)pentan-2-yl)carbamate]	0.5 to 1	
CC(C)C[C@H](NC(=O)OCCCc1cccc(Cl)c1)C(=O)N[C@@H](C[C@@H]1CCNC1=O)C(=O)COc1c(F)c(F)cc(F)c1F [Compound 128, 3-(3-chlorophenyl)propyl ((S)-4-methyl-1-oxo-1-(((S)-3-oxo-1-((S)-2-oxopyrrolidin-3-yl)-4-(2,3,5,6-tetrafluorophenoxy)butan-2-yl)amino)pentan-2-yl)carbamate]		EC50 [2]: > 1 µM
CC(C)C[C@H](NC(=O)C(=O)Nc1ccccc1F)C(=O)N[C@@H](C[C@@H]1CCCNC1=O)C(=O)COc1c(F)c(F)cc(F)c1F [Compound 129, N1-(2-fluorophenyl)-N2-((S)-4-methyl-1-oxo-1-(((S)-3-oxo-1-((S)-2-oxopiperidin-3-yl)-4-(2,3,5,6-tetrafluorophenoxy)butan-2-yl)amino)pentan-2-yl)oxalamide]	< 0.05	
CC(C)(C)C[C@H](NC(=O)C(=O)Nc1ccccc1F)C(=O)N[C@@H](C[C@@H]1CCNC1=O)C(=O)COc1c(F)c(F)cc(F)c1F [Compound 130, N1-((S)-4,4-dimethyl-1-oxo-1-(((S)-3-oxo-1-((S)-2-oxopyrrolidin-3-yl)-4-(2,3,5,6-tetrafluorophenoxy)butan-2-yl)amino)pentan-2-yl)-N2-(2-fluorophenyl)oxalamide]	< 0.05	
CC(C)C[C@H](NC(=O)C(=O)Nc1ccccc1F)C(=O)N[C@@H](C[C@@H]1CCNC1=O)C(=O)COc1c(F)cc(F)cc1F [Compound 131, N1-(2-fluorophenyl)-N2-((S)-4-methyl-1-oxo-1-(((S)-3-oxo-1-((S)-2-oxopyrrolidin-3-yl)-4-(2,4,6-trifluorophenoxy)butan-2-yl)amino)pentan-2-yl)oxalamide]	0.2 to 0.5	
CC(C)C[C@H](NC(=O)C(=O)Nc1ccccc1F)C(=O)N[C@@H](C[C@@H]1CCNC1=O)C(=O)COc1c(F)ccc(F)c1F [Compound 132, N1-(2-fluorophenyl)-N2-((S)-4-methyl-1-oxo-1-(((S)-3-oxo-1-((S)-2-oxopyrrolidin-3-yl)-4-(2,3,6-trifluorophenoxy)butan-2-yl)amino)pentan-2-yl)oxalamide]	0.05 to 0.2	
CC(C)C[C@H](NC(=O)C(=O)N[C@@H]1CCCOC1)C(=O)N[C@@H](C[C@@H]1CCNC1=O)C(=O)COc1c(F)c(F)cc(F)c1F [Compound 133, N1-((S)-4-methyl-1-oxo-1-(((S)-3-oxo-1-((S)-2-oxopyrrolidin-3-yl)-4-(2,3,5,6-tetrafluorophenoxy)butan-2-yl)amino)pentan-2-yl)-N2-((R)-tetrahydro-2H-pyran-3-yl)oxalamide]	0.05 to 0.2	
O=C(Nc1ccccc1Cl)C(=O)NC(CC1CCOCC1)C(=O)N[C@@H](C[C@@H]1CCNC1=O)C(=O)COc1c(F)c(F)cc(F)c1F (stereo partly drawn) [Compound 134, N1-(2-chlorophenyl)-N2-(1-oxo-1-(((S)-3-oxo-1-((S)-2-oxopyrrolidin-3-yl)-4-(2,3,5,6-tetrafluorophenoxy)butan-2-yl)amino)-3-(tetrahydro-2H-pyran-4-yl)propan-2-yl)oxalamide]	< 0.05	
CC(C)C[C@H](NC(=O)C(=O)Nc1ccccc1F)C(=O)N[C@H](Cc1cnc[nH]1)C(=O)COc1c(F)c(F)cc(F)c1F [Compound 136, Nl-((S)-1-(((R)-1-(1H-imidazol-5-yl)-3-oxo-4-(2,3,5,6-tetrafluorophenoxy)butan-2-yl)amino)-4-methyl-1-oxopentan-2-yl)-N2-(2-fluorophenyl)oxalamide]	0.5 to 1	
CC(C)C[C@H](NC(=O)OCC1CCCC1)C(=O)N[C@@H](C[C@@H]1CCNC1=O)C(=O)COc1c(F)c(F)cc(F)c1F [Compound 137, cyclopentylmethyl ((S)-4-methyl-1-oxo-1-(((S)-3-oxo-1-((S)-2-oxopyrrolidin-3-yl)-4-(2,3,5,6-tetrafluorophenoxy)butan-2-yl)amino)pentan-2-yl)carbamate]	0.5 to 1	
CC(C)C[C@H](NC(=O)OCCc1cccc(Cl)c1)C(=O)N[C@@H](C[C@@H]1CCNC1=O)C(=O)COc1c(F)c(F)cc(F)c1F [Compound 138, 3-chlorophenethyl ((S)-4-methyl-1-oxo-1-(((S)-3-oxo-1-((S)-2-oxopyrrolidin-3-yl)-4-(2,3,5,6-tetrafluorophenoxy)butan-2-yl)amino)pentan-2-yl)carbamate]		EC50 [2]: > 1 µM
CC(C)C[C@H](NC(=O)OC/C=C/c1cccc(Cl)c1)C(=O)N[C@@H](C[C@@H]1CCNC1=O)C(=O)COc1c(F)c(F)cc(F)c1F [Compound 139, (E)-3-(3-chlorophenyl)allyl ((S)-4-methyl-1-oxo-1-(((S)-3-oxo-1-((S)-2-oxopyrrolidin-3-yl)-4-(2,3,5,6-tetrafluorophenoxy)butan-2-yl)amino)pentan-2-yl)carbamate]		EC50 [2]: > 1 µM
CC(=O)N1CCC(NC(=O)C(=O)N[C@@H](CC(C)C)C(=O)N[C@@H](C[C@@H]2CCNC2=O)C(=O)COc2c(F)c(F)cc(F)c2F)CC1 [Compound 140, Nl-(l-acetylpiperidin-4-yl)-N2-((S)-4-methyl-1-oxo-1-(((S)-3-oxo-1-((S)-2-oxopyrrolidin-3-yl)-4-(2,3,5,6-tetrafluorophenoxy)butan-2-yl)amino)pentan-2-yl)oxalamide]		EC50 ([…], cells given as a bound): > 1 µM
